From PMC8514817, “De Novo Design of Antimicrobial Peptides With a Special Charge Pattern and Their Application in Combating Plant Pathogens” (Frontiers in Plant Science, 2021)
Where two headings read alike, the source gives them in different places.

What was measured:
Botrytis cinerea (Bc) [1] = experiment: Plant disease response, Bc infection of Arabidopsis Col0 leaves; format: in vivo, Arabidopsis thaliana
Rs Pss4 = details: Table 5, minimal medium, crude peptides, up to 32 μg/ml
Cgl FST02 = details: for antimicrobial activity: at the highest peptide concentration (32μg/ml) tested, data not shown, before the tests in minimal media
Xoo Xoo28 [2] = details: Table 4, rich medium, up to 32 μg/ml; for MIC: 48 h, no visible growth; for MBC: spotted on rich agar 48 h, no colony
Ech = details: up to 32 μg/ml
Bc = details: for antimicrobial activity: at the highest peptide concentration (32μg/ml) tested, data not shown, before the tests in minimal media
Pss B728a = details: Table 4, rich medium, up to 32 μg/ml; for MIC: 48 h, no visible growth; for MBC: spotted on rich agar 48 h, no colony
[3] = system: Pectobacterium carotovorum subsp. carotovorum (Pcc); experiment: Plant disease response, Pcc infection of tomato L390 leaves; format: in vivo, Solanum lycopersicum
Eco = format: cell-based, Escherichia coli
Rs Pss190 = details: Table 5, minimal medium, crude peptides, up to 32 μg/ml
Pst DC3000 = details: Table 4, rich medium, up to 32 μg/ml; for MIC: 48 h, no visible growth; for MBC: spotted on rich agar 48 h, no colony
Xev Xvt28 [4] = details: 48 h
[5] = system: Pectobacterium carotovorum subsp. carotovorum (Pcc); experiment: Plant disease response, Pcc infection of Arabidopsis Col0 leaves; format: in vivo, Arabidopsis thaliana; details: crude peptide 16 μg/ml mixed with Pcc, wounded leaves of Arabidopsis Col0, 16–28 h post-inoculation, vs water
[6] = system: Ralstonia solanacearum (Rs); format: cell-based; details: at the highest peptide concentration (32μg/ml) tested; data not shown; before the tests in minimal media
Rs = format: cell-based, Ralstonia solanacearum; details: crude peptide, 5 μl of 64 μg/ml in 20 μl, bacteria OD600=0.4 in water, 2 h, confocal microscopy
Eco DH5α [7] = details: 48 h
Botrytis cinerea (Bc) [8] = experiment: Plant disease response, Bc infection of tomato L390 leaves; format: in vivo, Solanum lycopersicum; details: crude peptide 16 μg/ml mixed with Bc spores (10^4 spores/ml), 47–70 h post-inoculation, vs water
Atu C58C1 [9] = details: Table 4, rich medium, up to 32 μg/ml
Xcc Xcc17 [10] = details: Table 4, rich medium, up to 32 μg/ml
Xev Xvt28 [11] = system: Xev Xvt28
Eco DH5α [12] = system: Eco DH5α
[13] = Circular dichroism, secondary structure deconvolution; format: physicochemical; details: CD, structural deconvolution; for α-helix content: dissolved in water
Method: The peptides were dissolved in water to make a stock solution and then diluted in the solution that contained different concentrations of trifluoroethanol (TFE) to the desired final TFE concentration. The circular dichroism (CD) spectra between 190 and 250nm were recorded on a J-815 CD spectrometer (JASCO, Japan). The bandwidth was 2nm, and the step resolution was 0.05nm. Each sample was scanned twice, and the average of the two measurements was smoothed using the Savitzky-Golay method to get the final CD spectrum. The CD spectra were deconvoluted using the CD Multivariate SSE software version 2.0.1 (JASCO, Japan).

Xcc Xcc17 [14] = format: cell-based, Xanthomonas campestris pv. campestris; details: rich medium, HPLC-purified peptides, peptide 0, 2, 10, 20 μg/ml, 24 h, OD600; lowest concentration inhibiting 50% of growth
Xoo Xoo28 [15] = format: cell-based, Xanthomonas oryzae pv. oryzae; details: rich medium, HPLC-purified peptides, peptide 0, 2, 10, 20 μg/ml, 24 h, OD600; lowest concentration inhibiting 50% of growth
Atu C58C1 [16] = format: cell-based, Agrobacterium tumefaciens; details: rich medium, HPLC-purified peptides, peptide 0, 2, 10, 20 μg/ml, 24 h, OD600; lowest concentration inhibiting 50% of growth
[17] = Table 5, minimal (CD) medium, crude peptides, spores, 96 h, up to 32 μg/ml
[18] = Table 5, minimal (CD) medium, crude peptides, spotted on PD plate 24~72 h, up to 32 μg/ml
[19] = Table 4, rich medium, 48 h, no visible growth, up to 32 μg/ml
[20] = spotted on rich agar 48 h, no colony

In the case of Ac-WKKLKKLLKKLKKL-NH2 [pepD2], the “Plant response to infection with Bc, Arabidopsis (class and significance; number of batches in parentheses)” value (Botrytis cinerea (Bc) [1]; crude peptide 16 µg/mL, lesion diameter 47–70 h post-inoculation, Student's t-test vs water-treated) was “ns(2 )”, the “development of the lesion caused by Bc, Arabidopsis” value (Botrytis cinerea (Bc) [1]; crude peptide 16 μg/ml mixed with Bc spores (10^5 spores/ml), Arabidopsis Col0 leaves, 47–70 h post-inoculation, vs water) was “did not detectably inhibit the diseases” and the MIC (Rs Pss4; 96 h) was “– (“–” indicates that no antimicrobial activity was detected in minimal media at the highest concentration (32μg/ml) of crude peptides that was tested in this study.)”. For the same substance, the MBC/MFC (Rs Pss4; spotted on rich agar 48 h) was “– (“–” indicates that no antimicrobial activity was detected in minimal media at the highest concentration (32μg/ml) of crude peptides that was tested in this study.)”, the MIC (Cgl FST02; [17]) was “– (“–” indicates that no antimicrobial activity was detected in minimal media at the highest concentration (32μg/ml) of crude peptides that was tested in this study.)” and the MBC/MFC (Cgl FST02; [18]) was “– (“–” indicates that no antimicrobial activity was detected in minimal media at the highest concentration (32μg/ml) of crude peptides that was tested in this study.)”. The antimicrobial activity (Cgl FST02) was “did not have detectable antimicrobial activity”, the MIC (Xoo Xoo28 [2]) was 4 µg/mL and the MBC (Xoo Xoo28 [2]) was 8 µg/mL. The MIC (Ech; Table 5, minimal medium, crude peptides, 96 h) was 16 µg/mL, the MBC/MFC (Ech; Table 5, minimal medium, crude peptides, spotted on rich agar 48 h) was 16 µg/mL and the MIC (Ech; Table 7, rich media, 48 h) was 32 µg/mL. For the same substance, the MBC (Ech; Table 7, rich media, spotted on rich agar 48 h) was 32 µg/mL, the MIC (Bc; [17]) was “– (“–” indicates that no antimicrobial activity was detected in minimal media at the highest concentration (32μg/ml) of crude peptides that was tested in this study.)” and the MBC/MFC (Bc; [18]) was “– (“–” indicates that no antimicrobial activity was detected in minimal media at the highest concentration (32μg/ml) of crude peptides that was tested in this study.)”. The antimicrobial activity (Bc) was “did not have detectable antimicrobial activity”, the MIC (Pss B728a) was 8 µg/mL and the MBC (Pss B728a) was 16 µg/mL. For the same substance, the “Plant response to infection with Pcc, Tomato (class and significance; number of batches in parentheses)” value ([3]; crude peptide 16 µg/mL, lesion diameter 16–28 h post-inoculation, Student's t-test vs water-treated) was “ns(3)”, the “size of disease lesions caused by Pcc, tomato” value ([3]; crude peptide 16 μg/ml mixed with Pcc, detached wounded tomato L390 leaves, 16–28 h post-inoculation, vs water) was “did not detectably inhibit the diseases” and the MIC (Pcc; [19]) was 8 µg/mL. The MIC (Pcc; Table 5, minimal medium, crude peptides, 96 h, up to 32 μg/ml) was 8 µg/mL, the MBC/MFC (Pcc; Table 5, minimal medium, crude peptides, spotted on rich agar 48 h, up to 32 μg/ml) was 8 µg/mL and the MIC (Pcc; Table 7, rich media, 48 h, up to 32 μg/ml) was 4 µg/mL. The MBC (Pcc; Table 7, rich media, spotted on rich agar 48 h, up to 32 μg/ml) was 8 µg/mL, the “membranolytic effect (SYTOX Green staining)” value (Eco) was “significant membranolytic effect” and the MIC (Rs Pss190; 96 h) was “– (“–” indicates that no antimicrobial activity was detected in minimal media at the highest concentration (32μg/ml) of crude peptides that was tested in this study.)”. The MBC/MFC (Rs Pss190; spotted on rich agar 48 h) was “– (“–” indicates that no antimicrobial activity was detected in minimal media at the highest concentration (32μg/ml) of crude peptides that was tested in this study.)”, the MIC (Pst DC3000) was 4 µg/mL and the MBC (Pst DC3000) was 8 µg/mL. For the same substance, the MBC (Xev Xvt28 [4]) was 4 µg/mL, the MIC (Xev Xvt28 [4]) was 4 µg/mL and the “size of disease lesions caused by Pcc, Arabidopsis” value [5] was “did not detectably inhibit the diseases”. For the same substance, the antimicrobial activity [6] was “did not have detectable antimicrobial activity”, the “membranolytic effect (SYTOX Green staining)” value (Rs) was “significant membranolytic effect” and the MBC (Eco DH5α [7]) was 8 µg/mL. The “development of the lesion caused by Bc, tomato” value (Botrytis cinerea (Bc) [8]) was “did not detectably inhibit the diseases”.
In the case of Ac-WKKLKKLLKKLKKLLKKL-NH2 [pepD], the antimicrobial activity (Cgl FST02) was “did not have detectable antimicrobial activity”, the MIC (Atu C58C1 [9]; 48 h, no visible growth) was 4 µg/mL and the MBC (Atu C58C1 [9]; [20]) was “– (“–” indicates that no antimicrobial activity was detected in rich media at the highest peptide concentration (32μg/ml) that was tested in this study.)”. For the same substance, the MIC (Xoo Xoo28 [2]) was 4 µg/mL, the MBC (Xoo Xoo28 [2]) was 4 µg/mL and the antimicrobial activity (Bc) was “did not have detectable antimicrobial activity”. The MIC (Pss B728a) was 32 µg/mL, the MBC (Pss B728a) was “– (“–” indicates that no antimicrobial activity was detected in rich media at the highest peptide concentration (32μg/ml) that was tested in this study.)” and the MBC (Pcc) was “– (key: “–” indicates that no antimicrobial activity was detected in rich media at the highest peptide concentration (32μg/ml) that was tested in this study.)”. The MIC (Pcc; [19]) was 32 µg/mL, the MIC (Xcc Xcc17 [10]; 48 h, no visible growth) was 2 µg/mL and the MBC (Xcc Xcc17 [10]; [20]) was 8 µg/mL. For the same substance, the IC50 (Xev Xvt28 [11]; 24 h) was 4 µg/mL, the MIC (Pst DC3000) was 16 µg/mL and the MBC (Pst DC3000) was 32 µg/mL. For the same substance, the MBC (Xev Xvt28 [4]) was 16 µg/mL, the MIC (Xev Xvt28 [4]) was 4 µg/mL and the antimicrobial activity [6] was “did not have detectable antimicrobial activity”. For the same substance, the MBC (Eco DH5α [7]) was 8 µg/mL, the MIC (Eco DH5α [7]) was 8 µg/mL and the IC50 (Eco DH5α [12]; DH5α, 24 h) was 10 µg/mL.
In the case of Ac-WKLLKKLLKLLKKLLKLL-NH2 [pepB], the α-helix formation ([13]; 10% TFE) was 90%, the α-helix content [13] was “about 25%” and the IC50 (Xcc Xcc17 [14]) was “– (“–” indicates that no antimicrobial activity was detected in rich media at the highest peptide concentration (20μg/ml) that was tested in this study.)”. For the same substance, the IC50 (Xev Xvt28 [11]; 24 h) was 20 µg/mL, the IC50 (Xoo Xoo28 [15]) was “– (“–” indicates that no antimicrobial activity was detected in rich media at the highest peptide concentration (20μg/ml) that was tested in this study.)” and the IC50 (Eco DH5α [12]) was “– (key: “–” indicates that no antimicrobial activity was detected in rich media at the highest peptide concentration (20μg/ml) that was tested in this study.)”. For the same substance, the IC50 (Atu C58C1 [16]) was “– (“–” indicates that no antimicrobial activity was detected in rich media at the highest peptide concentration (20μg/ml) that was tested in this study.)”.
With “Ac-WKLLKLLLKLLKLLLKLL-NH2 [pepA, de novo designed amphipathic peptide, 28% positively charged residues, 90° distribution]” the α-helix content [13] was “over 90%”, the IC50 (Xcc Xcc17 [14]) was “– (“–” indicates that no antimicrobial activity was detected in rich media at the highest peptide concentration (20μg/ml) that was tested in this study.)” and the IC50 (Xev Xvt28 [11]) was “– (key: “–” indicates that no antimicrobial activity was detected in rich media at the highest peptide concentration (20μg/ml) that was tested in this study.)”. The IC50 (Xoo Xoo28 [15]) was “– (“–” indicates that no antimicrobial activity was detected in rich media at the highest peptide concentration (20μg/ml) that was tested in this study.)”, the IC50 (Eco DH5α [12]) was “– (key: “–” indicates that no antimicrobial activity was detected in rich media at the highest peptide concentration (20μg/ml) that was tested in this study.)” and the IC50 (Atu C58C1 [16]) was “– (“–” indicates that no antimicrobial activity was detected in rich media at the highest peptide concentration (20μg/ml) that was tested in this study.)”.
